What was measured:
myofibroblast formation = settings: capsular contracture with breast implants, Ajmal et al. (2003); cited from earlier work
fibrinolysis = experiment: prevention / reversal of fibrinolysis; settings: one tenth of the doses used in the non-GLP acute porcine study

| Compound | myofibroblast formation (myofibroblast formation) | effect in reversing fibrinolysis (fibrinolysis) |
| --- | --- | --- |
| O=S(=O)([O-])CCS.[Na+] [MESNA, sodium 2-mercaptoethane sulfonate] | diminish myofibroblast formation | – |
| NC[C@H]1CC[C@H](C(=O)O)CC1 [tranexamic acid, trans-4-(aminomethyl)cyclohexanecarboxylic acid] | – | effective in reversing fibrinolysis |
